Experimental data as given in patent publication US8685371B2, “Agents for detecting and imaging cell death” (Cambridge Enterprise Limited, priority 2008, dated 2014).
“And” between values parts separate entries of the source, which are not always exact repeats. Equal entries are not always repeated. Where two headings read alike, the source gives them in different places.

Columns and labels:
Assay in all cases: Surface plasmon resonance (SPR) binding to phosphatidylserine-coated L1 chip
[1] = target: T1, C2Am-AlxAF647: Rattus norvegicus synaptotagmin I C2A domain variant C2Am, S78C (S217C of full-length synaptotagmin I), SEQ ID NO: 1, labelled at cysteine-78 wit (Rattus norvegicus, UniProt P21707, S217C); conditions: 37° C., 2 mM CaCl2, pH 7.4
T1 construct: GST (N, cleaved yes); linker between GST and C2A (part after the thrombin site) (N); made in house; host or cells: E. coli BL21
T1 sequence (P21707 140-267 S217C): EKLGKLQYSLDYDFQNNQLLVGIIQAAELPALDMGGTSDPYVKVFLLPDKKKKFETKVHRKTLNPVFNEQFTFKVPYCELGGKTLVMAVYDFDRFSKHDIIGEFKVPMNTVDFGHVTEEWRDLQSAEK
Excerpt: (§1) The Rattus norvegicus synaptotagmin sequence was acquired using the NCBI Genbank service (sequence identity NM_001033680; NM_001033680.2) and the C2A domain was selected from this sequence. Three candidate cysteine mutants were selected at: Ser217, Gln154, Asn248 (see FIG. 2). Appropriate primers for mutagenesis were designed with the use of Quikchange Primer Design software. The C2A-containing pGEX-2T vector (GE Healthcare, Chalfont St Giles, UK) was isolated from BL21 E. coli cells and underwent a double restriction digest to confirm its identity. Mutagenesis was performed by the Stratagene QuikChange Site-Directed Mutagenesis kit. E. coli DH5α competent cells were transformed with the mutant plasmid by heat shock and the amplified vector then isolated and sequenced. Finally, E. coli BL21 cells were transformed with the vector by electroporation.
(§2) S217C (position 78 of the C2A domain; position 217 of full-length Synaptotagmin I) mutant was selected as the best expressed site-directed mutant of C2A (C2Am).
The mutant protein (C2Am) was covalently labeled with the fluorochrome Alexa Fluor 647 (AlxAF647), via a reaction between the cysteine-78 residue with the maleimide group of Alexa Fluor 647 C2 maleimide (Invitrogen). Briefly, the protein was reduced using 10 mM DTT for half an hour at room temperature. The protein was then washed in a 5-KDa vivaspin concentrator (Sartorius, Epsom, UK) in HNE buffer (20 mM HEPES, 100 mM NaCl, 5 mM EDTA, pH 7.4). This removed any residual DTT, which interferes with the conjugation reaction. The protein was kept at a concentration in the range 50-100 μM, and approximately a 10-fold molar excess of the fluorescent maleimide dye was added. The reaction was allowed to proceed on a magnetic stirrer at 4° C. overnight. Gel filtration was used to separate the modified protein from unreacted dye. Electrospray ionisation (ESI) mass spectrometry was used to confirm successful modification of the protein, which yielded a single species of approximately 17204 Da (C2Am-AlxAF647). ESI mass spectrometry of Annexin V-Alexa Fluor647™ was also performed. Briefly, samples were desalted using Millipore mC18 Ziptips and eluted with 50% MeCN/0.2% formic acid. Samples were analyzed by direct infusion at a flow rate of […] into a Waters QtofMicro, using 70% MeOH/0.2% formic acid as the mobile phase. Typical settings: capillary 3000V, cone 90V, capillary temperature 80° C., desolvation temperature 150° C., calibration by myoglobin and/or trypsinogen collected later in the same file. Deconvolution was conducted using Waters MassLynx MaxEnt 1 software (Waters Ltd, Manchester, UK). […]

[2] = target: T2, Rattus norvegicus synaptotagmin I C2A domain variant C2Am, S78C (S217C of full-length synaptotagmin I), SEQ ID NO: 1 (Rattus norvegicus, UniProt P21707, S217C); conditions: 37° C., 2 mM CaCl2, pH 7.4
T2 construct: GST (N, cleaved yes); linker between GST and C2A (part after the thrombin site) (N); made in house; host or cells: E. coli BL21
T2 sequence (P21707 140-267 S217C): as above
Excerpt: as §1, §2
(§3) Large multilamellar vesicles (LMVs) were prepared using three types of phospholipids (Phosphatidylserine, PS; Phosphatidylethanolamine, PE and Phosphatidylcholine, PC, Avanti Polar Lipids, Alabaster, Ala., USA). A sample of 2.6 μmol of phospholipids (PS:PE:PC mixture in chloroform; molar ratio 35:50:15) was dried under a gentle stream of nitrogen for half an hour and resuspended in 2.6 mL of C2A binding buffer (HBS=20 mM HEPES, 150 mM NaCl, pH 7.4, containing 2 mM CaCl2), by vigorous vortex mixing.
Surface Plasmon Resonance (SPR) analysis was performed on L1 sensor chips using a Biacore T100 system (Biacore, GE Healthcare).
In some experiments, the chip flow cells were washed with a 2-min pulse of a mixture of isopropanol/NaOH 50 mM (2:3 volume) at 5 μL, min^−1, and one coated with 5 μL of a suspension of SMVs containing 1 mM of phospholipids (at 1 μL min^−1), generating an average relative response of ca. 2,000 RU (relative units). Unbound multilamellar material was removed from the chip after SMV injection, by applying three 20s regeneration pulses of sodium hydroxide (50 mM, at 20 μL min^−1).
In other experiments, the chip flow cells were washed with two, 30 s pulses of 20 mM, 3-[(3Cholamidopropyl)dimethylammonio]-1-propanesulfonate (CHAPS, at 30 μL min−1), then one flow cell (test) was coated with a suspension of test SMVs (PS:PE:PC) containing 1 mM of phospholipids (at 5 μL min−1), until an average relative response of ca. 5000 RU (relative units) was reached. Unbound multilamellar material was removed from the lipid bilayer after SMV injection, by applying two, 30 s pulses of sodium hydroxide (50 mM, at 30 μL min−1).
Another flow cell was left uncoated as a control path. In some experiments, another flow cell (control) was coated with a suspension of control SMVs (PE:PC) containing 1 mM of phospholipids (at 5 μL min−1), until an average relative response of ca. 5000 RU (relative units). Control SMVs were prepared using PE and PC (molar ratio 77:23), and unbound material removed as above
After a stable baseline had been achieved, the proteins were allowed to interact sequentially with the chip surface of the two flow cells of interest, for 2 min (association phase) and 1 min (dissociation phase) at 30 μL min^−1 or for 60 s (association phase) at 40 μL min^−1 at 37° C. The phospholipid bilayer was regenerated using a 15 s or 20 s pulse of HBS containing 10 mM NaEDTA, or (HBS, 20 mm EDTA, pH 7.4) at 40 μL min^−1, after each individual injection.
(§4) Each protein solution was prepared automatically by the system at varying concentrations from 0 to 100 nM or from 5 nM to 75 nM using automated mix fraction preparation, and all injections were conducted in duplicate in C2A binding buffer at a flow rate of 30 μL min^−1 and 37° C. All concentrations were analyzed in duplicate. […]

[3] = target: T3, Rattus norvegicus synaptotagmin I C2A domain, wild type (Rattus norvegicus, UniProt P21707); conditions: FIG. 8; thermal equilibrium SPR data, 1:1 Langmuir binding model, protein 5-95 nM, 37° C., 2 mM CaCl2, pH 7.4; read-out: dissociation constant (KD)
T3 construct: GST (N); made in house; host or cells: E. coli BL21
T3 sequence (P21707 141-260 limits assumed): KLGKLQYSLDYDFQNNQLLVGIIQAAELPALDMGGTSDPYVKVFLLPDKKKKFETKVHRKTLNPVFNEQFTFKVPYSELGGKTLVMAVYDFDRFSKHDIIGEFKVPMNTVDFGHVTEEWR
Protocol: as §3
Surface Plasmon Resonance (SPR) analysis was performed on L1 sensor chips using a Biacore T100 system (Biacore, GE Healthcare). […]
as §4, with “duplicate. Protein affinity for PS was evaluated by estimating the thermal equilibrium affinity dissociation constants (KD), obtained from the response values 4 s before the end of the association phase of the corresponding interaction sensorgrams (FIG. 8).” for “duplicate.”

[4] = kinetic analysis of SPR data, read-out: KD (kinetics)

Kd ([1]; affinity analysis of SPR data, read-out: KD (affinity)): 71 ± 6.9 nM
ka (kinetics) ([1]; kinetic analysis of SPR data): 2.14e+06 M⁻¹ s⁻¹
kd (kinetics) ([1]; kinetic analysis of SPR data): 0.188 s⁻¹
Kd [1, 4]: 87.9 nM
Kd ([2]; FIG. 8, thermal equilibrium SPR data, 1:1 Langmuir binding model, protein 5-95 nM, read-out: dissociation constant (KD)): 49.4 ± 4.9 nM
Kd ([2]; affinity analysis of SPR data, duplicate injections, listed as PS, read-out: KD (affinity)): 55.4 ± 3.5 nM
Kd ([2]; affinity analysis of SPR data, duplicate injections, read-out: KD (affinity)): ~55 nM and 55.4 nM
ka (kinetics) ([2]; kinetic analysis of SPR data): 2.01e+06 M⁻¹ s⁻¹
kd (kinetics) ([2]; kinetic analysis of SPR data): 0.110 s⁻¹
Kd [2, 4]: 54.2 nM
Kd [3]: 48.5 ± 3.5 nM
Substance: Phosphatidylserine
